# Assay results reported in US20050202093A1, “Prolonged suppression of electrical activity in excitable tissues” (priority 2002, published 2005).
# Tests used:
# [1] = system: hippocampus of pilocarpine-treated rats; assay: Hippocampal histology two weeks after seizure induction (thionin cell loss score, Timm stain score); type: in vivo, Sprague Dawley rats; settings: dosage 5 μg
# Method: Two weeks after induction of seizure, animals were sacrificed and prepared for routine histology and Timm histochemistry. Following deep anesthesia with sodium pentobarbital (100 mg/kg), rats were perfused transcardially with 300 ml sodium sulfide medium (2.295 g Na2S, 2.975 g NaH2PO4/H2O in 500 ml H2O) followed by 300 ml 4% paraformaldehyd were postfixed in 4% paraformaldehyde for 24 h and then placed in a 30% sucrose solution until they sank to the bottom of the vial. Coronal sections through the entire extent of the hippocampus were cut at 40 μm on a freezing microtome and sections were stored in phosphate buffered saline. Every fourth section was stained for mossy fibers using Timm stain as follows. The sections were developed in the dark for 40-45 min in a solution of 50% Arabic gum (120 ml), 10 ml of citric acid (51 g/100 ml H2O), 10 ml sodium citrate (47 g/100 ml H2O), 3.47 g hydroquinone in 60ml, and 212.25 mg AgNO3. Following washing, the slides were dehydrated in alcohol, cleared in xylene, and mounted on slides with Permount (Fisher Scientific, Pittsburgh, Pa.). Timm staining was analyzed using a scoring system (0 to 5) for terminal sprouting in the CA3 and supragranular regions (Holmes G L, Gaiarsa J L, Chevassus-Au-Louis N, Ben-Ari Y. Consequences of neonatal seizures in the rat: morphological and behavioral effect. Ann. Neurol. 1998; 44: 845-857; Holmes G L, Sarkisian M, Ben-Ari Y, Chevassus-Au-Louis N. Mossy fiber sprouting following recurrent seizures during early development in rats. J. Comp. Neurol. 1999; 404: 537-553; each of which is incorporated herein by reference). […] Slides were analyzed for cell loss in the CA3, CA1 and hilar region using a semi-quantitative visual scoring system (0 to 5) (Mikati M A, Holmes G L, Chronopoulos A, et al. Phenobarbital modifies seizure-related brain injury in the developing brain. Ann. Neurol. 1994; 36: 425-433; incorporated herein by reference). Cell loss was assessed both ipsilateral and contralateral to the injection site. […]
# pilocarpine-treated rats = assay: Focal pilocarpine-induced seizures after intrahippocampal pretreatment, behavior scored 0-6; type: in vivo, Sprague Dawley rats
# Method: The method is similar to that described by Cavalheiro et al. (Cavalheiro E A, Czuzwar S J, Kleinrok S. Intracerebral cholinomimetics produce seizure-related brain damage in rats. Brit. J. Pharmacol. 1983; 79: 284P; incorporated herein by reference). Animals were anesthetized with pentobarbital (40 mg/kg) and an electrode-cannula guide (Plastic one, USA) was stereotactically implanted in the CA3 region of the dorsal hippocampus (lateral from midline 3.5 mm, posterior from bregma 3.8 mm, and 3.8 mm deep from skull; FIG. 35 in (Paxinos G, Watson C. The rat brain in stereotaxic coordinates, 4th edition. San Diego: Academic Press, 1998; incorporated herein by reference)). The electrode-cannula guide was fixed to skull using dental cement and skull screws. After surgery, a dummy cannula was placed into the guide cannula to prevent occlusion. One week later the rats received 30 μl of one anticonvulsant or control treatment (encapsulated or free) through the cannula using a microinfusion pump (Baxter, model AS40A) for 15 min at a rate of 0.12 ml/hr. Thirty minutes after completion of these treatments, 40 mM pilocarpine was infused for 50 min at a rate of 0.12 ml/hr. Subsequently, continuous EEGs were recorded from the electrode-cannulae, and the animals were videotaped for a minimum of two hours. […]
smiles,measurement,setting,value
"NCc1cc(=O)[nH]o1 [free muscimol, Muscimol]",Timm scores CA3 region,"[1]; n=4, mean ± SD",1.48 ± 0.63
same,Timm scores Supragranular,"[1]; n=4, mean ± SD",1.75 ± 0.28
same,Total cell loss,"[1]; n=4, thionin staining, mean ± SD",6.27 ± 0.57
same,"seizure activity as measured by behavior score, versus normal saline","pilocarpine-treated rats; 5 μg intrahippocampal prior to pilocarpine, 120 minute time course, n=4",reduces seizure activity
same,mortality,pilocarpine-treated rats; unencapsulated comparison groups to the 10 μg and 20 μg particle groups,high mortality
